Data reported in patent publication US9028845B2, “Chimeric immunomodulatory compounds and methods of using the same-IV” (Dynavax Technologies Corporation, priority 2001, dated 2015).
“Also recorded” adds a separate entry of the source.

Tests used:
human PBMCs = experiment: Human PBMC cytokine response assay (IFN-γ and IFN-α in cell-free medium by ELISA), with or without cPLGA; type: cell-based; settings: for immunomodulatory activity (IFN-γ / IFN-α secretion), in words: used alone (no cPLGA);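 as to IFN-α (pg/ml) mean: 20 µg/mL compound for 24 hours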;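 as to IFN-γ (pg/ml) mean: 20 µg/mL compound for 24 hours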
mice = experiment: Serum cytokines (IL-12 p40, IL-6, TNF-α) after subcutaneous injection in mice; type: in vivo; settings: 20 ug subcutaneous, blood 2 hours later
Protocol: Blood was collected 2 hours later. For the LPS positive control group, mice were injected intraperitoneally with a 200 ul volume, and blood was collected 1.5 hours later (i.e., at the peak of LPS induced TNF-α activity). The blood was clotted and the serum was prepared and stored at −80° C. until assayed. Serum cytokines were assayed using Biosource cytoscreen kits for TNF-α and Pharmingen antibody pairs for mIL-6 and mIL-12. All samples were assayed in duplicate.

CD19+ B cells = experiment: Human B cell proliferation assay (3H-thymidine incorporation); settings: 2 μg/ml; for cpm1 / cpm2 / cpm3 / mean cpm / mean of both: B cells
Protocol: Purified human B cells from 2 donors were stimulated with 5 μg/ml P-6 or CIC for 96 h. Proliferation was assessed by ^3H-thymidine incorporation.
A CIC is considered to induce “little” human B cell proliferation if B cell proliferation in the presence of the CIC is between greater than 15 to about 30% of P-6.
Human PBMCs were isolated from heparanized blood from two normal subjects. Some PBMCs were held in reserve while the remainder was incubated with CD19+ MACS beads (Miltenyi Biotec). These cells were then passed through a magnet, separating the CD19+ B cells through positive selection. […] B cells were then cultured at 1×10^5/200 μl/well in 96-well round-bottomed plates. In some cases, PBMCs were also cultured, but at 2×10^5/200 μl/well. Cells were stimulated in triplicate with 2 μg/ml polynucleotide or CIC. The culture period was 48 hours at 37° C. At the end of the culture period, the plates were pulsed with ^3H-thymidine, 1 μCi/well, and incubated for an additional 8 hours. Then the plates were harvested using standard liquid scintillation techniques and data was collected in counts per minutes (cpm).

PBMCs = experiment: Human PBMC proliferation assay (3H-thymidine incorporation); type: cell-based; settings: Experiment A; for mean cpm: 2 μg/ml
mouse splenocytes = experiment: Mouse splenocyte cytokine secretion (IL-6, IL-12, IFN by ELISA); type: cell-based, BALB/c mice; parameters: IFN: unit not given beside the values; settings: 24 h
Protocol: Polynucleotides and chimeric compounds were tested for immunostimulatory activity on mouse splenocytes. Immunostimulation was assessed by measurement of cytokine secretion into the culture media. Cytokine levels in the culture supernatant were determined by enzyme-linked immunosorbent assay (ELISA) tests.
Cells were isolated and prepared using standard techniques. Spleens of 8 to 20 week-old BALB/c mice were harvested and the splenocytes isolated using standard teasing and treatment with ACK lysing buffer from BioWhittaker, Inc. Four spleens were pooled in this experiment. Isolated cells were washed in RPMI 1640 media supplemented with 2% heat-inactivated fetal calf serum (FCS), 50 μM 2-mercaptoethanol, 1% penicillin-streptomycin, and 2 mM L-glutamine and resuspended at approximately […] in 10% FCS/RPMI (RPMI 1640 media with 10% heat-inactivated FCS, 50 μM 2-mercaptoethanol, 1% penicillin-streptomycin, and 2 mM L-glutamine).
Cell cultures were set up in triplicate with approximately 7×10^5 cells/well in a 96-well flat microtiter plate in 100 μl 10% FCS/RPMI with the cells allowed to rest for at lest 1 hour after plating. The indicated test compounds were incubated (at the indicated concentrations) for 24 hours at 37° C. Cell supernatants were harvested and frozen at −80° C. Cytokine production by the cells was determined by ELISAs, as shown in 19.

[1] = Table 25, mean of donors 28250-28253
[2] = mean of Donors 1-2, 20 μg/ml, 24 h
[3] = mean of Donors 3-4, 20 μg/ml, 24 h
[4] = Donor 5, 20 μg/ml (mixtures: 20 μg/ml total), 24 h
[5] = Donor 6, 20 μg/ml (mixtures: 20 μg/ml total), 24 h
[6] = mean of Donors 5-6, 20 μg/ml (mixtures: 20 μg/ml total), 24 h
[7] = mean of Donors 7-8, 20 μg/ml, 24 h

5′-TCGTCGA-3′ [Compound P-1, reference compound]
IFN-α (pg/ml) Donor 1 (human PBMCs; 20 μg/ml, 24 h): 0 pg/mL | IFN-γ (pg/ml) Donor 1 (human PBMCs; 20 μg/ml, 24 h): 8 pg/mL | IFN-α (pg/ml) Donor 2 (human PBMCs; 20 μg/ml, 24 h): 0 pg/mL | IFN-γ (pg/ml) Donor 2 (human PBMCs; 20 μg/ml, 24 h): 0 pg/mL | IFN-α (pg/ml) Donor 3 (human PBMCs; Donor 3, 20 μg/ml, 24 h): 0 pg/mL | IFN-γ (pg/ml) Donor 3 (human PBMCs; Donor 3, 20 μg/ml, 24 h): 1 pg/mL | IFN-α (pg/ml) Donor 4 (human PBMCs; Donor 4, 20 μg/ml, 24 h): 32 pg/mL | IFN-γ (pg/ml) Donor 4 (human PBMCs; Donor 4, 20 μg/ml, 24 h): 4 pg/mL | IFN-a (human PBMCs; Table 25, donor 28250): 16 pg/mL | IFN-g (human PBMCs; Table 25, donor 28250, polynucleotides/spacers at amounts equivalent to the CIC, spacers alone 9 uM): 54 pg/mL | IFN-a (human PBMCs; Table 25, donor 28251): 16 pg/mL | IFN-g (human PBMCs; Table 25, donor 28251): 21 pg/mL | IFN-a (human PBMCs; Table 25, donor 28252): 16 pg/mL | IFN-g (human PBMCs; Table 25, donor 28252): 56 pg/mL | IFN-a (human PBMCs; Table 25, donor 28253): 16 pg/mL | IFN-g (human PBMCs; Table 25, donor 28253): 1 pg/mL | IFN-a mean (human PBMCs; [1]): 16 pg/mL | IFN-g mean (human PBMCs; [1]): 33 pg/mL | IFN-α (pg/ml) mean (human PBMCs; [2]): 0 pg/mL | IFN-γ (pg/ml) mean (human PBMCs; [2]): 4 pg/mL | IFN-α (pg/ml) mean (human PBMCs; [3]): 16 pg/mL | IFN-γ (pg/ml) mean (human PBMCs; [3]): 2 pg/mL | immunomodulatory activity (IFN-γ / IFN-α secretion), in words (human PBMCs): no activity; also recorded: did not have immunomodulatory activity | induction of serum IL-12 p40, IL-6 and TNF-α, in words (mice): inactive | B cell proliferation, in words (CD19+ B cells; 48 h plus 8 h 3H-thymidine pulse): little to no B cell proliferation | cpm1 (CD19+ B cells; Donor 146, Experiment A): 761 cpm | cpm2 (CD19+ B cells; Donor 146, Experiment A): 608 cpm | cpm3 (CD19+ B cells; Donor 146, Experiment A): 721 cpm | mean cpm (CD19+ B cells; Donor 146 mean, Experiment A): 697 cpm | cpm1 (CD19+ B cells; Donor 147, Experiment A): 569 cpm | cpm2 (CD19+ B cells; Donor 147, Experiment A): 460 cpm | cpm3 (CD19+ B cells; Donor 147, Experiment A): 687 cpm | mean cpm (CD19+ B cells; Donor 147 mean, Experiment A): 572 cpm | mean of both (CD19+ B cells; mean of Donors 146 and 147, Experiment A): 634 cpm | cpm1 (PBMCs; Donor 146, 2 μg/ml): 9724 cpm | cpm2 (PBMCs; Donor 146, 2 μg/ml): 3041 cpm | cpm3 (PBMCs; Donor 146, 2 μg/ml): 2425 cpm | mean cpm (PBMCs; Donor 146 mean): 5063 cpm | cpm1 (PBMCs; Donor 147, 2 μg/ml): 1706 cpm | cpm2 (PBMCs; Donor 147, 2 μg/ml): 1960 cpm | cpm3 (PBMCs; Donor 147, 2 μg/ml): 324 cpm | mean cpm (PBMCs; Donor 147 mean): 1330 cpm | mean of both (PBMCs; mean of Donors 146 and 147, 2 μg/ml): 3197 cpm

5′-AACGTT-3′ [Compound P-11]
induction of serum IL-12 p40, IL-6 and TNF-α, in words (mice): inactive

5′-TCGTCG-3′- C3-5′-ACGTTCG-3′-C3-5′-AGATGAT-3′ [Compound C-11]
IFN (mouse splenocytes; dose 0.1 μg/ml): 960 | IL-6 (mouse splenocytes; dose 0.1 μg/ml): 458 | IL-12 (mouse splenocytes; dose 0.1 μg/ml): 3359 | IFN (mouse splenocytes; dose 1.0 μg/ml): 3220 | IL-6 (mouse splenocytes; dose 1.0 μg/ml): 11814 | IL-12 (mouse splenocytes; dose 1.0 μg/ml): 4914 | IFN (mouse splenocytes; dose 5.0 μg/ml): 3342 | IL-6 (mouse splenocytes; dose 5.0 μg/ml): 10098 | IL-12 (mouse splenocytes; dose 5.0 μg/ml): 4279 | IFN-α (pg/ml) Donor 1 (human PBMCs; 20 μg/ml, 24 h): 119 pg/mL | IFN-γ (pg/ml) Donor 1 (human PBMCs; 20 μg/ml, 24 h): 2308 pg/mL | IFN-α (pg/ml) Donor 2 (human PBMCs; 20 μg/ml, 24 h): 0 pg/mL | IFN-γ (pg/ml) Donor 2 (human PBMCs; 20 μg/ml, 24 h): 270 pg/mL | IFN-α (pg/ml) Donor 5 (human PBMCs; [4]): 76 pg/mL | IFN-γ (pg/ml) Donor 5 (human PBMCs; [4]): 25 pg/mL | IFN-α (pg/ml) Donor 6 (human PBMCs; [5]): 175 pg/mL | IFN-γ (pg/ml) Donor 6 (human PBMCs; [5]): 792 pg/mL | IFN-α (pg/ml) Donor 7 (human PBMCs; Donor 7, 20 μg/ml, 24 h): 6 pg/mL | IFN-γ (pg/ml) Donor 7 (human PBMCs; Donor 7, 20 μg/ml, 24 h): 5 pg/mL | IFN-α (pg/ml) Donor 8 (human PBMCs; Donor 8, 20 μg/ml, 24 h): 56 pg/mL | IFN-γ (pg/ml) Donor 8 (human PBMCs; Donor 8, 20 μg/ml, 24 h): 419 pg/mL | IFN-α (pg/ml) mean (human PBMCs; [2]): 59 pg/mL | IFN-γ (pg/ml) mean (human PBMCs; [2]): 1289 pg/mL | IFN-α (pg/ml) mean (human PBMCs; [6]): 126 pg/mL | IFN-γ (pg/ml) mean (human PBMCs; [6]): 409 pg/mL | IFN-α (pg/ml) mean (human PBMCs; [7]): 31 pg/mL | IFN-γ (pg/ml) mean (human PBMCs; [7]): 212 pg/mL | immunomodulatory activity (IFN-γ / IFN-α secretion), in words (human PBMCs): did have immunomodulatory activity | cpm1 (CD19+ B cells; donor 121, Experiment B): 30367 cpm | cpm2 (CD19+ B cells; donor 121, Experiment B): 30412 cpm | cpm3 (CD19+ B cells; donor 121, Experiment B): 18528 cpm | mean cpm (CD19+ B cells; donor 121 mean, Experiment B): 26436 cpm | cpm1 (CD19+ B cells; donor 194, Experiment B): 16967 cpm | cpm2 (CD19+ B cells; donor 194, Experiment B): 20898 cpm | cpm3 (CD19+ B cells; donor 194, Experiment B): 11253 cpm | mean cpm (CD19+ B cells; donor 194 mean, Experiment B): 16373 cpm | mean of both (CD19+ B cells; mean of donors 121 and 194, Experiment B): 21404 cpm
